Read-outs that look alike come from different tables or passages of the source.
Key:
[1] = system: BT474; assay: Cytotoxicity assay (SRB), BT474; assay type: cell-based; details: Homo sapiens, BT-474, 144 h, read-out: In Vitro Cellular Activity IC50 BT474
In short: (§1)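 Cells were seeded overnight in RPMI 1640 with 5% FBS at 37 °C, 7% CO2 (12000/well BT474, 4000 HCT-116, 6000 LoVo, 6000 MCF-7), then exposed to compound dilutions for 3 days (6 days for BT474). Survival versus untreated controls was measured by TCA fixation and SRB staining at 540 nm.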

[2] = biological target: T1, cyclin D1/cdk 4 enzyme (Homo sapiens, UniProt P11802); assay: CDK4 ELISA kinase assay (phospho-Rb ser 795 detection); assay type: biochemical
T1 construct: made in house; host or cells: Sf9 insect cells, recombinant baculovirus
T1 sequence (P11802 whole entry, species assumed): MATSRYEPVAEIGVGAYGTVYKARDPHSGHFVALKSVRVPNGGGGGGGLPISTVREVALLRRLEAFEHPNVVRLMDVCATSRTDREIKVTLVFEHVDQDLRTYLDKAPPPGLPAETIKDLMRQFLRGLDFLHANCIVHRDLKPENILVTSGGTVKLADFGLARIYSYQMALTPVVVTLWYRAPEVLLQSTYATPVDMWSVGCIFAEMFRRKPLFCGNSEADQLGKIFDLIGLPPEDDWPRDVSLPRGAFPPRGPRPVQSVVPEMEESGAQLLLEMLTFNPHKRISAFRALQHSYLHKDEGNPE
T1 sequence (P24385 whole entry partner, species assumed): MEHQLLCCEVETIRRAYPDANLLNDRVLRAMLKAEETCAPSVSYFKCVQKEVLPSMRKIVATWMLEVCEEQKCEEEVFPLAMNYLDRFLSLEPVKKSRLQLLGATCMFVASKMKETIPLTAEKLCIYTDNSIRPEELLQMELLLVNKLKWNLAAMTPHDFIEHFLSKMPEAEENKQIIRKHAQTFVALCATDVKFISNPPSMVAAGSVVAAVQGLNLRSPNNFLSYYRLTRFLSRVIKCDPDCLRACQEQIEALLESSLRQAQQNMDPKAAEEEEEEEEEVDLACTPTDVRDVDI
In short: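 Inhibition was derived from A450 relative to control wells lacking compound, following an anti-phospho-Rb Ser795 sandwich of HRP detection. The reactions combined coated GST-Rb fragment, 200 μM ATP and baculovirus-expressed cyclin/CDK enzymes, incubated for 1 h at 30° C.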

[3] = system: MCF-7; assay: Cytotoxicity assay (SRB), MCF-7; assay type: cell-based; details: Homo sapiens, MCF7, 72 h, read-out: In Vitro Cellular Activity IC50 MCF-7
In short: as §1

[4] = system: LoVo; assay: Cytotoxicity assay (SRB), LoVo; assay type: cell-based; details: Homo sapiens, LoVo, 72 h, read-out: In Vitro Cellular Activity IC50 LOVO
In short: as §1

[5] = system: HCT-116; assay: Cytotoxicity assay (SRB), HCT-116; assay type: cell-based; details: Homo sapiens, HCT-116, 72 h, read-out: In Vitro Cellular Activity IC50 HCT116
In short: as §1

[6] = biological target: T2, cyclin B/CDK1 enzyme (Homo sapiens, UniProt P06493); assay: CDK1 ELISA kinase assay (phospho-Rb ser 795 detection); assay type: biochemical
T2 construct: purchased New England BioLabs; host or cells: Sf9 insect cells, recombinant baculovirus
T2 sequence (P06493 whole entry): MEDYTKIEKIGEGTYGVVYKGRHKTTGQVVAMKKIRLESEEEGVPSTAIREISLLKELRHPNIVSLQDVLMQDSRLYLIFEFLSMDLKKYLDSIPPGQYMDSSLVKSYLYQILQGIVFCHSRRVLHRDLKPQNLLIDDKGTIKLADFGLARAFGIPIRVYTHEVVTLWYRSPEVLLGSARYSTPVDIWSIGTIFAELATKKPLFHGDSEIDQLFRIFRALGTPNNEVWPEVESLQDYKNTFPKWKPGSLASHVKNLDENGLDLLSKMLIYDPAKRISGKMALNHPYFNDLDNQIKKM
T2 sequence (P14635 whole entry partner): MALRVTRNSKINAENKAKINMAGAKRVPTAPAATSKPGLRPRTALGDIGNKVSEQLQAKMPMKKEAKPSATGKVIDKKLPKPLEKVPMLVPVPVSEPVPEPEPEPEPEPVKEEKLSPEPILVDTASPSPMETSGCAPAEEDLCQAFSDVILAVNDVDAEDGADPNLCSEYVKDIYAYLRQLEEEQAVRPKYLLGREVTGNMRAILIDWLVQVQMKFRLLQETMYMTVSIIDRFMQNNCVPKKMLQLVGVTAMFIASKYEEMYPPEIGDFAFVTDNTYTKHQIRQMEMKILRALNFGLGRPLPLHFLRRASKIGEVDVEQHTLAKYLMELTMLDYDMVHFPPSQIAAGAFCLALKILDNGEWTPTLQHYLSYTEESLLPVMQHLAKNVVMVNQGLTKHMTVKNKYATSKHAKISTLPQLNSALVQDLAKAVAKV
Protocol: • 1. High-binding ELISA microtiter plates (Costar) were coated with 40 μl of the kinase substrate (GST fusion of C-terminal fragment of the retinoblastoma susceptibility gene product) diluted to 10 μg/ml in tris-buffered saline (TBS), overnight at 4° C. • 2. Non-specific binding sites were blocked for 1 hour at 4° C. with Superblock in TBS (Pierce), and the plates rinsed with water. • 3. For the screen, 1.5 μl of test compound (200 μg/ml stock in 20% DMSO/20 mM HEPES, pH 7.5) was added to each well. Final dose of the test compound in the assay was 10 ug/ml. […] The kinase reaction (30 μl) was dispensed into each well. Reactions contained 200 μM ATP, 0.5 mg/ml bovine serum albumin (BSA; Sigma), and 0.5 μl partially purified cyclin D1/cdk 4 enzyme*. The enzyme complex is expressed in insect cells (Sf9) infected with recombinant baculovirus and partially purified using ammonium sulfate fractionation. Reaction volumes were adjusted to 30 μl with kinase assay buffer (50 mM HEPES, pH 7.5, 10 mM MgCl2, 5% glycerol, 10 mM 2-mercaptoethanol). • *: For CDK2 assay, 1.0 μl cyclin E/CDK2 enzyme (diluted 1:1000 in kinase assay buffer) was used. The enzyme is isolated from insect cells (Sf9) infected with recombinant baculovirus and partially purified using ammonium sulfate fractionation. For CDK1 assay, 0.08 μl cyclin B/CDK1 enzyme [New England BioLabs; the enzyme is isolated from insect cells (Sf9) infected with recombinant baculovirus carrying human cdc 2 and human cyclin B] was used.
[…] • 5. Plates were incubated at 30° C. for 1 hour. • 6. The reaction mixture was removed by aspiration and replaced with 250 μl TBS containing 0.1% Tween-20 and 5% nonfat dry milk (blocking buffer). The plates were incubated at 4° C. for 1 hour. • 7. The blocking buffer was removed and replaced with 50 μl of the primary antibody [anti-phospho-Rb ser 795 (New England BioLabs) diluted 1:1000 in blocking buffer]. Incubation was at 4° C. for 16-20 hours. • 8. The wells were rinsed 3 times with 250 μl of TBS containing 0.1% Tween-20 followed by the addition of 50 μl of secondary antibody [anti-rabbit IgG conjugated to horseradish peroxidase (Amersham Life Science) diluted 1:1000 in blocking buffer]. • 9. After a 1 hour incubation at room temperature, the wells were rinsed 3 times with 250 μl of TBS/0.1% Tween 20. • 10. TMB (3,3′,5,5′-tetramethylbenzidine dihydrochloride) substrate solution (100 μl; Pierce) was added to each well and the color development reaction allowed to proceed 5-10 minutes at room temperature with shaking. The reaction was stopped by the addition of 2N sulfuric acid (100 μl) and the absorbance values read at 450 nm in a microplate reader (Molecular Devices). Analysis of Results: • 1. The percentage of the absorbance value in wells containing the test compound relative to control wells (no test agent) was determined. • 2. IC50 values of selected compounds were determined from inhibition curves, after subtracting background values (no substrate).

[7] = In Vitro Enzyme Assays, 200 μM ATP, read-out: CDK4 IC50
[8] = In Vitro Enzyme Assays, read-out: CDK1 IC50
[9] = In Vitro Enzyme Assay, cyclin D1/cdk 4, read-out: CDK4 IC50

| SMILES | IC50 [2, 7] | IC50 [6, 8] | IC50 ([1]; BT474 cells, SRB, 6 days) | IC50 ([3]; MCF-7 cells, SRB, three days) | IC50 ([4]; LoVo cells, SRB, three days) | IC50 ([5]; HCT116 cells, SRB, three days) | also measured |
| --- | --- | --- | --- | --- | --- | --- | --- |
| O=C1NC(=O)c2ccc(Br)cc2/C1=C/NCc1ccc(OCCO)c(O)c1 [Example 139, (4Z)-6-Bromo-4-({[3-hydroxy-4-(2-hydroxyethoxy)benzyl]amino}methylene)isoquinoline-1,3(2H,4H)-dione] | 0.04 µM | > 50 µM | 15 µM | > 50 µM | 26 µM | > 50 µM |  |
| C=CCOc1ccc(CN/C=C2\C(=O)NC(=O)c3ccc(Br)cc32)cc1O [Example 149, (4Z)-4-({[4-(Allyloxy)-3-hydroxybenzyl]amino}methylene)-6-bromoisoquinoline-1,3(2H,4H)-dione] | 0.33 µM | > 50 µM | 12 µM | > 50 µM | 27 µM | 18 µM |  |
| O=C1NC(=O)c2ccc(-c3ccoc3)cc2/C1=C/NCc1ccc(OC(F)F)c(O)c1 [Example 199, (4Z)-4-({[4-(Difluoromethoxy)-3-hydroxybenzyl]amino}methylene)-6-(3-furyl)isoquinoline-1,3(2H,4H)-dione] | < 0.005 µM | > 50 µM | 1.3 µM | 1.9 µM | 4.1 µM | 6.4 µM |  |
| C[C@@H]1CN(c2ccc(N/C=C3\C(=O)NC(=O)c4ccc(I)cc43)cc2)C[C@H](C)N1 [Example 216, (4Z)-4-({[4-(3,5-Dimethylpiperazin-1-yl)phenyl]amino}methylene)-6-iodoisoquinoline-1,3(2H,4H)-dione] |  | > 50 µM | 1.1 µM |  | 1.3 µM |  |  |
| Cc1ccc(-c2ccc3c(c2)C(=CNCc2ccc(S(N)(=O)=O)cc2)C(=O)NC3=O)cc1 [Example 752, 4-{[(1,3-Dioxo-6-p-tolyl-2,3-dihydro-1H-isoquinolin-4-ylidenemethyl)-amino]-methyl}-benzenesulfonamide] |  |  |  |  |  |  | IC50 ([1]; BT474 cells, 6 days, SRB): 33.3 µM; IC50 [2, 9]: 1.3 µM; IC50 ([3]; MCF-7 cells, 3 days, SRB): 18.5 µM; IC50 ([4]; LoVo cells, 3 days, SRB): 33.4 µM; IC50 ([5]; HCT116 cells, 3 days, SRB): 14.8 µM |
| Cc1cccc(-c2ccc3c(c2)C(=CNCc2ccc(S(N)(=O)=O)cc2)C(=O)NC3=O)c1 [Example 753, 4-{[(1,3-Dioxo-6-m-tolyl-2,3-dihydro-1H-isoquinolin-4-ylidenemethyl)-amino]-methyl}-benzenesulfonamide] |  |  |  |  |  |  | IC50 ([1]; BT474 cells, 6 days, SRB): 28.9 µM; IC50 [2, 9]: 3.4 µM; IC50 ([3]; MCF-7 cells, 3 days, SRB): 13.3 µM; IC50 ([4]; LoVo cells, 3 days, SRB): 23.4 µM; IC50 ([5]; HCT116 cells, 3 days, SRB): 14.4 µM |
| CN1CCN(c2ccc(NC=C3C(=O)NC(=O)c4ccc(-c5ccccc5)cc43)cc2)CC1 [Example 831, 4-{[4-(4-Methyl-piperazin-1-yl)-phenylamino]-methylene}-6-phenyl-4H-isoquinoline-1,3-dione] |  |  |  |  |  |  | IC50 ([1]; BT474 cells, 6 days, SRB): 3.2 µM; IC50 [2, 9]: 0.19 µM; IC50 ([4]; LoVo cells, 3 days, SRB): 2.8 µM; IC50 ([6]; In Vitro Enzyme Assay, cyclin B/CDK1, read-out: CDK1 IC50): > 50 µM |
| N=C(N)c1ccc(NC=C2C(=O)NCc3cc(Cl)ccc32)cc1 [Example 857, 4-[(7-Chloro-3-oxo-2,3-dihydro-1H-isoquinolin-4-ylidenemethyl)-amino]-benzamidine] |  |  |  |  |  |  | IC50 ([1]; BT474 cells, 6 days, SRB): 24 µM; IC50 [2, 9]: 18.5 µM; IC50 ([3]; MCF-7 cells, 3 days, SRB): > 50 µM; IC50 ([4]; LoVo cells, 3 days, SRB): > 50 µM; IC50 ([5]; HCT116 cells, 3 days, SRB): 43.1 µM |
| CN1CCN(c2ccc(N/C=C3\C(=O)NC(=O)c4ccc(-n5cccc5)cc43)cc2)CC1 [compound 60] |  | > 50 µM |  |  |  |  | IC50 [1]: 2 µM; IC50 [3]: 2.3 µM; IC50 [4]: 2 µM; IC50 [5]: 1.5 µM |

More lines, main results first:

| IC50 [2, 7] | IC50 [6, 8] | SMILES | IC50 ([1]; BT474 cells, SRB, 6 days) | IC50 ([3]; MCF-7 cells, SRB, three days) | IC50 ([4]; LoVo cells, SRB, three days) | IC50 ([5]; HCT116 cells, SRB, three days) | also measured |
| --- | --- | --- | --- | --- | --- | --- | --- |
| 19.4 µM | > 50 µM | O=C1NC(=O)c2ccc(-c3ccc(Cl)cc3)cc2/C1=C/Nc1ccc(CN2CCCCC2)cc1 [Example 111, (4Z)-6-(4-Chlorophenyl)-4-({[4-(piperidin-1-ylmethyl)phenyl]amino}methylene)isoquinoline-1,3(2H,4H)-dione] | 2.8 µM | 2.1 µM | 1.2 µM | 1.2 µM |  |
|  | > 50 µM | COc1ccc(-c2ccc3c(c2)/C(=C/Nc2ccc(CN4CCCCC4)cc2)C(=O)NC3=O)cc1 [Example 116, (4Z)-6-(4-Methoxyphenyl)-4-({[4-(piperidin-1-ylmethyl)phenyl]amino}methylene)-isoquinoline-1,3(2H,4H)-dione] | 2.8 µM | 3.2 µM | 2.8 µM | 1.3 µM |  |
|  | > 50 µM | O=C1NC(=O)c2ccc(N3CCCCC3)cc2/C1=C/Nc1ccc(CN2CCCCC2)cc1 [Example 118, (4Z)-6-Piperidin-1-yl-4-({[4-(piperidin-1-ylmethyl)phenyl]amino}methylene)isoquinoline-1,3(2H,4H)-dione] | 4 µM | 4.4 µM | 3.2 µM | 2.7 µM |  |
| 0.32 µM | > 50 µM | CN1CC2CC1CN2c1ccc(NC=C2C(=O)NC(=O)c3ccc(I)cc32)cc1 (stereo not shown) [Example 221, 6-Iodo-4-{[4-(5-methyl-2,5-diaza-bicyclo[2.2.1]hept-2-yl)-phenylamino]-methylene}-4H-isoquinoline-1,3-dione] | 3.2 µM | 2.6 µM | 3.2 µM | 1.9 µM |  |
| 2.7 µM | > 50 µM | CC1CN(c2ccc(N/C=C3\C(=O)NC(=O)c4ccc(I)cc43)cc2)CCN1C (stereo not shown) [Example 248, (4Z)-4-({[4-(3,4-Dimethylpiperazin-1-yl)phenyl]amino}methylene)-6-iodoisoquinoline-1,3(2H,4H)-dione] | 3 µM |  | 2.8 µM |  |  |
|  | > 50 µM | O=C1NC(=O)c2ccc([N+](=O)[O-])cc2/C1=C/Nc1ccc(CN2CCCCC2)cc1 [compound 42] | 4 µM | 7.6 µM | 5.9 µM | 3 µM |  |

Reference: patent US7713994B2 (Wyeth LLC, priority 2005, dated 2010)
